In one data set the target is T1, human topo IIα (Homo sapiens, UniProt P11388).
T1 construct: purchased Inspiralis (Norwich, UK)
Description: HTS relaxation assay of human topo IIα. In kind it is biochemical. The following applies: screening at 7.8, 31.5, 125 and 500 µM. The protocol: The 14 selected compounds from the class of substituted 4,5'-bithiazoles were experimentally assayed if they inhibit catalytic activity of human topo IIα using an established high-throughput screening (HTS) relaxation assay for human topo IIα [24].
The HTS assays primarily served to select compounds for further evaluation.
Plate was rehydrated using wash buffer (20 mM Tris-HCl (pH = 7.6), 137 mM NaCl, 0.005 % (w/v) BSA, 0.05 % (v/v) TWEEN-20®) and biotinylated oligonucleotide was immobilized onto the wells. Next, the excess oligonucleotide was washed off with wash buffer. Enzyme assay was carried out in reaction volume of 30 µL using 0.75 µg supercoiled plasmid pNO1 as a substrate and human topo IIα. Enzyme was diluted to the appropriate concentration with dilution buffer comprised of 50 mM Tris-Hcl (pH = 7.5), 100 mM NaCl, 1 mM DTT, 0.5 mM EDTA, 50 % (v/v) glycerol and 50 µg/mL albumin. Tested compounds (0.3 µL) were added as a stock solution in DMSO and final concentration of DMSO was 1 %, respectively. Reactions were incubated at 37 °C for 30 min, and TF buffer (50 mM NaOAc (pH = 5.0), 50 mM NaCl, 50 mM MgCl2) was added to the wells and incubated at room temperature for additional 30 min to allow the triplex biotin-oligonucleotid-plasmid formation. To eliminate the aggregation and non-specific inhibition a surfactant (TWEEN-20®) was added to the reaction mixture. Unbound plasmid was washed off with TF buffer and stained with the DNA-detection Dye in the T10 buffer (10 mM Tris-HCl (pH = 8) and 1 mM EDTA) was added. After mixing, fluorescence was read using Tecan fluorimeter (Excitation: 485 nm and Emission: 535 nm). Screening was performed at the inhibitor concentrations of 7.8, 31.5, 125 and 500 µM. IC50 values were calculated using GraphPad Prism 6.0 software and represent the concentrations of inhibitors where residual activity of the enzyme was 50 % [24].

A short description of data set [1]: solubility in the cell growth media. In kind it is physicochemical. To be noted: result in words.
In a further data set the test system is MCF-7 cells. Kind of data set: MTS cytotoxicity assay, MCF-7. To be noted: for EC50: Homo sapiens, interval in brackets; for effect on the tested cell lines: initial screening, 24 h, 100 µM for compound 6, 200 µM for 8 and 11, result in words. Type of data set: cell-based, human. From the text:
(§1) We determined the cytotoxicity of the tested compounds on human breast cancer MCF-7 and human hepatocellular carcinoma HepG2 cancer cell lines using MTS assay. Both selected human cancer cell lines are representative and well-established systems for cell-based evaluation of potential anticancer compounds. Etoposide was again used as a positive control (PC).
(§2) In the first step we performed the initial screening of compounds 1-14 at one concentration. […] Exponentially growing cells were exposed to all compounds for 24 h and the results are represented in Figure 3A.
(§3) In vitro cytotoxicity of investigated compounds was evaluated in two human cancer cell lines: the […] cell lines. The HepG2 cells (ATCC) were cultivated at 37 °C and 5 % CO2 in MEME medium (M2414, Sigma) supplemented with 10 % FBS, 2 mM L-Glutamine, 1 % NEAA, 2.2 g/L NaHCO3, 1 mM sodium pyruvate and 100 IU/mL penicillin/ streptomycin and MCF-7 (ATCC) were cultivated in Eagle's MEM medium (M5650, Sigma), supplemented with 10 % fetal bovine serum, 2 mM glutamine, and 100 IU/mL penicillin/streptomycin. After the exposure to the tested compounds the viability of HepG2 and MCF-7 cells was determined by MTS tetrazolium reduction assay. The cells were seeded onto 96-well microplates (Nunc, TermoFisher Scientific, Waltham, MA, USA) at densities of 8000 cells per well (HepG2) and 7000 cells per well (MCF-7) in […] growth medium and incubated overnight to attach. The next day, the growth medium was replaced by the fresh complete growth medium containing appropriate concentrations of the compounds. […] Finally, the absorbance was measured at wavelength of 490 nm using a Microplate Reader (Synergy MX, BioTek, Winooski, VT, USA). […] Assay was performed at 5 concentrations of each compound; 2, 25, 50, 100 and 200 µM for compounds 1, 7 and 14 and 1, 12.5, 25, 50, 100 µM for compounds 9 and 10. […] Cell viability was determined by comparing the OD (optical density) of the wells containing the cells treated with investigated compounds with those of solvent control cells and presented as % of cell viability ± SD. Experiments were performed three times independently each time in at least three replicates. EC50 values were calculated by non-linear regression analysis using GraphPad Prism 7.0 Software. Statistical significance between treated groups and the control was determined by One-way analysis of variance and Dunnett's Multiple Comparison Test.
Background: Formazan colour is commonly taken as a measure of viable cells.

The next data set relates to HepG2 cells. Description: MTS cytotoxicity assay, HepG2. In kind it is cell-based, human. The following applies: for EC50: Homo sapiens, interval in brackets; for effect on the tested cell lines: initial screening, 24 h, 100 µM for compound 6, 200 µM for 8 and 11, result in words.
Source text: as §1, §2, §3

[2] abbreviates: MCF7, read-out: EC50 [µM] MCF-7 (24h), 24h exposure.
The mark [3] stands for this setting: MCF7, 72h exposure, read-out: EC50 [µM] MCF-7 (72h).
[4] abbreviates: HepG2, read-out: EC50 [µM] HepG2 (24h), 24h exposure.
The mark [5] stands for this setting: HepG2, 72h exposure, read-out: EC50 [µM] HepG2 (72h).

As usually defined, the IC50 is the midpoint of a concentration-inhibition curve. Read a low IC50 as inhibition by little substance. The term EC50 denotes the concentration that produces a half-maximal response.

Like-named read-outs stand apart in the source and are kept apart here.

T1 sequence (P11388 whole entry): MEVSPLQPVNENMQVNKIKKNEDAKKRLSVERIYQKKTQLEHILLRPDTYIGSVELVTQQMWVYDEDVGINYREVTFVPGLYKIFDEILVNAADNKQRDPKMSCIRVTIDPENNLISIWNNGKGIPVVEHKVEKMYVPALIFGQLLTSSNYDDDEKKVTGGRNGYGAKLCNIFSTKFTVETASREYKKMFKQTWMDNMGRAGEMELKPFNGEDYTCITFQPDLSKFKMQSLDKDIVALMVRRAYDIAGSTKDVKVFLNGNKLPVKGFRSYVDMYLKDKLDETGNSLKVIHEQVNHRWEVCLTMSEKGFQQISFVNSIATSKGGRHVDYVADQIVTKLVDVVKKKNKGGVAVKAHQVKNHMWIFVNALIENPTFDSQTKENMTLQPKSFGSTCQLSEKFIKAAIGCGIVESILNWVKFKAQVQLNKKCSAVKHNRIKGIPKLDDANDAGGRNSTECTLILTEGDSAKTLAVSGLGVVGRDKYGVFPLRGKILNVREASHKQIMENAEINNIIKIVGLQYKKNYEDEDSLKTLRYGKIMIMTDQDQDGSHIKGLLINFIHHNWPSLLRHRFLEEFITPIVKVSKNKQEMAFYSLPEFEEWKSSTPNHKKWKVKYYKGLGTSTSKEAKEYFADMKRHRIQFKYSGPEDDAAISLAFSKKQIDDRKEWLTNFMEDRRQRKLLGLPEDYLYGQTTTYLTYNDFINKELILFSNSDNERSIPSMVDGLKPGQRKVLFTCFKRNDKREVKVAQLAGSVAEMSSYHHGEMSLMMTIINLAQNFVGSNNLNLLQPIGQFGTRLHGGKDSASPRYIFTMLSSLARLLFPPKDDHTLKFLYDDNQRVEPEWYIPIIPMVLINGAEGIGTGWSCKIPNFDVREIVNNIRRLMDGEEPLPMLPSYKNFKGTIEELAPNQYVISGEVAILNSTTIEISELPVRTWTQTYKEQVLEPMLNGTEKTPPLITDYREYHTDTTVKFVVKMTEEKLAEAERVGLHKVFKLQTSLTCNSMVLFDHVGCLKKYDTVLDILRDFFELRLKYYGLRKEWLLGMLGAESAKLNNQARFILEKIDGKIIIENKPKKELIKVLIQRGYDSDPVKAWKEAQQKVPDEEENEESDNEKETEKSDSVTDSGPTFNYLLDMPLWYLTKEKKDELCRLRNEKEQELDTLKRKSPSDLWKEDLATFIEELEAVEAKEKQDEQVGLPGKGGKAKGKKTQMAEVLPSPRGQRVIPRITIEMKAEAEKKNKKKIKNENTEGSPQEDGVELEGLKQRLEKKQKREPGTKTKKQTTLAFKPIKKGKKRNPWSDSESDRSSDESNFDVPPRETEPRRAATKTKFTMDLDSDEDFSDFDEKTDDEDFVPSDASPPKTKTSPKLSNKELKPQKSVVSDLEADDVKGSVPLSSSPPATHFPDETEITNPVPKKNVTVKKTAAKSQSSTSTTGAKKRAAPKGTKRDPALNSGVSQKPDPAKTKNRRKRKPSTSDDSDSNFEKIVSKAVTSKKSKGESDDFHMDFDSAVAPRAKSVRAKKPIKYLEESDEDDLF

Turning to `CC(=O)c1ccc(Nc2nc(-c3sc(N)nc3C)cs2)cc1` [Compound 3, 1-(4-((2'-amino-4'-methyl-[4,5'-bithiazol]-2-yl)amino)phenyl)ethan-1-one], the IC50 against human topo IIα stood at 222 µM. For the same compound, in data set [1], the “solubility in the cell growth media” value is listed as “low solubility”.
The compound `CC(=O)Nc1nc(C)c(-c2csc(Nc3ccccc3)n2)s1` [Compound 14, N-(4'-methyl-2-(phenylamino)-[4,5'-bithiazol]-2'-yl)acetamide] showed a concentration for half-maximal inhibition (IC50) against human topo IIα of 357 µM. Moreover, the EC50 with MCF-7 cells (setting [2]) is 32.3 µM; in the data set on MCF-7 cells (setting [3]), 7.5 µM; in the data set with HepG2 cells (setting [4]) it was 47.7 µM; in the data set on HepG2 cells (setting [5]), 28.2 µM.
The corresponding values for `CC(=O)Nc1nc(C)c(-c2csc(Nc3cccc(O)c3)n2)s1` [Compound 7, N-(2-((3-hydroxyphenyl)amino)-4'-methyl-[4,5'-bithiazol]-2'-yl)acetamide] are 33.7 µM, 12.3 µM, 6.6 µM, 45.6 µM and 32.3 µM.
The compound `Cc1nc(N)sc1-c1csc(Nc2ccc(S(N)(=O)=O)cc2)n1` [Compound 5, 4-((2'-amino-4'-methyl-[4,5'-bithiazol]-2-yl)amino)benzenesulfonamide] had an IC50 against human topo IIα of 70.1 µM.
The same measure, in the same setting: in the case of `Cc1nc(NC(=O)c2ccccc2)sc1-c1csc(Nc2ccc(C(=O)O)cc2)n1` [Compound 15, 4-((2'-benzamido-4'-methyl-[4,5'-bithiazol]-2-yl)amino)benzoic acid] it was 12.6 µM.
In the case of `CC(=O)Nc1nc(C)c(-c2csc(Nc3ccc(C(=O)O)cc3)n2)s1` [Compound 8, 4-((2'-acetamido-4'-methyl-[4,5'-bithiazol]-2-yl)amino)benzoic acid], half-maximal inhibition against human topo IIα (IC50) was put at 120 µM. The “effect on the tested cell lines” value with MCF-7 cells and in the data set with HepG2 cells was “little or no effect” throughout.
Consider `Cc1cc(NS(=O)(=O)c2ccc(Nc3nc(-c4sc(N)nc4C)cs3)cc2)no1` [Compound 4, 4-((2'-amino-4'-methyl-[4,5'-bithiazol]-2-yl)amino)-N-(5-methylisoxazol-3-yl)benzenesulfonamide], for which the IC50 on human topo IIα came to 30.1 µM.
At human topo IIα, `COc1ccc(Nc2nc(-c3sc(NC(C)=O)nc3C)cs2)cc1` [Compound 10, N-(2-((4-methoxyphenyl)amino)-4'-methyl-[4,5'-bithiazol]-2'-yl)acetamide] showed an IC50 of 22.7 µM. In addition, the concentration giving a half-maximal response (EC50) in the data set with MCF-7 cells (setting [2]) came to 16.4 µM; in the data set with MCF-7 cells (setting [3]), 4.5 µM; with HepG2 cells (setting [4]) it was 34.7 µM; in the data set on HepG2 cells (setting [5]), 14.6 µM.
For the compound `CC(=O)Nc1nc(C)c(-c2csc(Nc3ccc(O)cc3)n2)s1` [Compound 12, N-(2-((4-hydroxyphenyl)amino)-4'-methyl-[4,5'-bithiazol]-2'-yl)acetamide], at human topo IIα, half-maximal inhibition (IC50) required 193 µM.
For `CC(=O)Nc1nc(C)c(-c2csc(Nc3cccc(C(=O)O)c3)n2)s1` [Compound 11, 3-((2'-acetamido-4'-methyl-[4,5'-bithiazol]-2-yl)amino)benzoic acid], on human topo IIα, 134 µM corresponded to half-maximal inhibition (IC50). Also, the “effect on the tested cell lines” value in the data set on MCF-7 cells and with HepG2 cells was “little or no effect” each time.
Consider `Cc1nc(N)sc1-c1csc(Nc2ccc(C(=O)O)c(O)c2)n1` [Compound 6, 4-((2'-amino-4'-methyl-[4,5'-bithiazol]-2-yl)amino)-2-hydroxybenzoic acid], for which, on human topo IIα, it took 37.7 µM to reach half-maximal inhibition (IC50). Further, the “effect on the tested cell lines” value in the data set with MCF-7 cells and in the data set on HepG2 cells was “little or no effect” in each case.
In the case of `Cc1cc(O)ccc1Nc1nc(-c2sc(N)nc2C)cs1` [Compound 2, 4-((2'-amino-4'-methyl-[4,5'-bithiazol]-2-yl)amino)-3-methylphenol], it took 35.8 µM to reach half-maximal inhibition at human topo IIα (IC50).
On the same count and under the same terms, next, `CCC(=O)Nc1nc(C)c(-c2csc(Nc3ccc(C(=O)O)cc3)n2)s1` [Compound 13, 4-((4'-methyl-2'-propionamido-[4,5'-bithiazol]-2-yl)amino)benzoic acid]: 123 µM.

The record behind these values is EP3811940B1, “SUBSTITUTED 4,5'-BITHIAZOLES AS INHIBITORS OF THE HUMAN DNA TOPOISOMERASE II” (Kemijski Institut, priority 2019, dated 2021).
